# Patent US20080312301A1, “Substituted N-Benzo[D]Isoxazol-3-Yl-Amine Compounds as Inhibitors of Mglur5, Serotonin (5-Ht) and Noradrenaline Receptors, and Uses Thereof” (Gruenenthal GmbH, priority 2005, published 2008)
# Biological target: T1, 5-HT uptake (serotonin reuptake) (Rattus norvegicus, UniProt P31652)
# T1 construct: from tissue; host or cells: rat medulla and pons synaptosomes (P2 fraction)
# Assay: 5HT uptake inhibition in rat brain synaptosomes (medulla and pons), [3H]-5-HT
# Format: biochemical
# Settings: not given
# Description: (§1) I. Method for Determining the Noradrenaline and 5HT Uptake Inhibition:
# (§2) For in vitro studies, synaptosomes were freshly isolated from rat brain areas as described in the publication “The isolation of nerve endings from brain” by E. G. Gray and V. P. Whittaker, J. Anatomy 96, pages 79-88, 1962. The corresponding literature description is introduced hereby as reference and forms part of the disclosure.
# (§3) The tissue (hypothalamus for determining the noradrenaline uptake inhibition and medulla and pons for determining the 5HT uptake inhibition) was homogenized in ice-cold 0.32 M sucrose (100 mg of tissue/1 ml) in a glass homogenizer with Teflon pestle using five full up and down strokes at 840 revolutions/minute. The homogenate was centrifuged at 1000 g and at 4° C. for 10 minutes. After subsequent centrifugation at 17 000 g for 55 minutes, the synaptosomes (P2 fraction) are obtained and were resuspended in 0.32 M […] (0.5 ml/100 mg of the original weight).
# (§4) The respective uptake was measured in a 96-well microtiter plate. The volume was 250 μl and incubation took place at room temperature (approx. 20-25° C.) under an O2 atmosphere.
# (§5) The incubation time was 7.5 minutes for [^3H]-NA and 5 minutes for [^3H]-5-HT. The 96 samples were then filtered through a Unifilter GF/B® microtiter plate (Packard) and washed with […] of incubated buffer using a “Brabdel MPXRI-96T Cell Harvester”. The Unifilter GF/B plate was dried at 55° C. for 1 h. The plate was then sealed with a Back Seal® (Packard) and 35 μl of scintillation fluid were added per well (Ultima Gold®, Packard). After sealing with a top Seal® (Packard), the radioactivity was determined, after equilibrium had been reached (about 5 h), in a “Trilux 1450 Microbeta” (Wallac).
# (§6) The amount of protein employed in the above determination corresponded to the value disclosed in the literature, as described for example in “Protein measurement with the folin phenol reagent”, Lowry et al., J. Biol. Chem., 193, 265-275, 1951. A detailed description of the method can also be found in the literature, for example from M. Ch. Frink, H.-H. Hennies, W. Engelberger, M. Haurand and B. Wilffert (1996) Arzneim.-Forsch./Drug Res. 46 (III), 11, 1029-1036. The corresponding literature descriptions are hereby introduced as reference and form part of the disclosure.
# T1 sequence (P31652 whole entry): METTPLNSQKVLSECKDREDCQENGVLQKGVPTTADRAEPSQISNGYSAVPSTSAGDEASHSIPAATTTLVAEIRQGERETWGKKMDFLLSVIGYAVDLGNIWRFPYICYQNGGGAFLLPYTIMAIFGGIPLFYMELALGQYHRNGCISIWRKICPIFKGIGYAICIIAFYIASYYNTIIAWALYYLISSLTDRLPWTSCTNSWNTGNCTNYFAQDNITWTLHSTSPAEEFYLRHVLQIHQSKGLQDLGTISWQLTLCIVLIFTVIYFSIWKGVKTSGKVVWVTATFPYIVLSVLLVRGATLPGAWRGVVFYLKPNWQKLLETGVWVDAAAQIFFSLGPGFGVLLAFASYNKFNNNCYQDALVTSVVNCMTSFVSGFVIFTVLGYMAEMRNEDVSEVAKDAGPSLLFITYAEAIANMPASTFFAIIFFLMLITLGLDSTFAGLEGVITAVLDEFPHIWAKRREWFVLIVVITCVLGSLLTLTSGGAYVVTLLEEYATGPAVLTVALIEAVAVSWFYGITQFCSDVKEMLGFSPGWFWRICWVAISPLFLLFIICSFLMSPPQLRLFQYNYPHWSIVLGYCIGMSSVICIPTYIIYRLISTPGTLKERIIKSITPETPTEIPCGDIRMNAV
row,5 HT uptake inhibition [%] conc. 10 μM [%],Compound
1,77,"O=C(Nc1noc2cc(F)ccc12)c1cccs1 [Example 17, thiophene-2-(6-fluorobenzo[d]isoxazol-3-yl)carboxamide]"

# Same assay, conditions: conc. 10 μM
row,inhibition at 10 µM [%],Compound
1,84,"O=C(Nc1noc2ccccc12)c1ccccc1C(F)(F)F [Example 13, N-benzo[d]isoxazol-3-yl-2-trifluoromethylbenzamide]"
2,69,"O=C(Nc1noc2ccccc12)c1ccc(Cl)c(Cl)c1 [Example 14, N-benzo[d]isoxazol-3-yl-3,4-dichlorobenzamide]"
3,86,"O=C(Nc1noc2ccccc12)c1cccc(F)c1F [Example 15, N-benzo[d]isoxazol-3-yl-2,3-difluorobenzamide]"
4,72,"CN(C)c1cccc2onc(NC(=O)c3cccc(F)c3)c12 [Example 16, N-(4-dimethylaminobenzo[d]isoxazol-3-yl)-3-fluorobenzamide]"
5,70,"CCC(C)C(=O)Nc1noc2cc(F)ccc12 (stereo not drawn) [Example 18, N-(6-fluorobenzo[d]isoxazol-3-yl)-2-methylbutyramide]"
6,77,"COc1cccc(C(=O)Nc2noc3cc(Cl)ccc23)c1 [Example 20, N-(6-chlorobenzo[d]isoxazol-3-yl)-3-methoxybenzamide]"
7,81,"CC(C)(C)c1ccc(C(=O)Nc2noc3cc(Br)ccc23)cc1 [Example 21, N-(6-bromobenzo[d]isoxazol-3-yl)-4-tert-butylbenzamide]"
8,79,"COc1ccccc1C(=O)Nc1noc2cc(Br)ccc12 [Example 22, N-(6-bromobenzo[d]isoxazol-3-yl)-2-methoxybenzamide]"

# Biological target: T2, NA transporter (Rattus norvegicus, UniProt Q63380)
# T2 construct: from tissue; host or cells: rat hypothalamus synaptosomes (P2 fraction)
# Assay: Noradrenaline (NA) uptake inhibition in rat brain synaptosomes (hypothalamus), [3H]-NA
# Format: biochemical
# Settings: not given
# Description: as §1, §2, §3, §4, §5
# The following characteristic data were found for the NA transporter:
# as §6
# T2 sequence (Q63380 1-617): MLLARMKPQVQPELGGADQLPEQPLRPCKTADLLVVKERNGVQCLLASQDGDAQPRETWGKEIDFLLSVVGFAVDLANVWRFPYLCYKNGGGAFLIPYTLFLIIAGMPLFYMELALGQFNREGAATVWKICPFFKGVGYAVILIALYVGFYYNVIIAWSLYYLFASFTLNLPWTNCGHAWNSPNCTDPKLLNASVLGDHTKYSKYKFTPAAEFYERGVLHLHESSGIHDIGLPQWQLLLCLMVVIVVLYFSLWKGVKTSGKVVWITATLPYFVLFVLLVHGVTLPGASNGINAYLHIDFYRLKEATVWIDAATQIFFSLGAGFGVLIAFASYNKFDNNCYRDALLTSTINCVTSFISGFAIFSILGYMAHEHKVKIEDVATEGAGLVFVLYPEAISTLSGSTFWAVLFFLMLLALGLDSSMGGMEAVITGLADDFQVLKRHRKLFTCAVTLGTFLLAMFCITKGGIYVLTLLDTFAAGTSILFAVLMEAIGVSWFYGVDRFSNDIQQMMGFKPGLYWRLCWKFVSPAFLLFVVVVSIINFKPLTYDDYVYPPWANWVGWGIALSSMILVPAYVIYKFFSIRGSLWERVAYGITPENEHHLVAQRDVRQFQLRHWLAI
row,NA uptake inhibition [%] conc. 10 μM [%],Compound
1,67,"O=C(Nc1noc2c(F)cccc12)c1ccc2ccccc2c1 [Example 57, naphthalene-2-(7-fluorobenzo[d]isoxazol-3-yl)carboxamide]"
2,64,"CCCc1ccc(C(=O)Nc2noc3cccc(F)c23)cc1 [Example 58, N-(74-fluorobenzo[d]isoxazol-3-yl)-4-propylbenzamide]"
3,64,"O=C(Nc1noc2c(F)cccc12)c1ccco1 [Example 63, furan-2-(7-fluorobenzo[d]isoxazol-3-yl)carboxamide]"
4,73,"CN(C)c1cccc2onc(NC(=O)c3ccc4ccccc4c3)c12 [Example 67, naphthalene-2-(4-dimethylaminobenzo[d]isoxazol-3-yl)carboxamide]"
5,65,"O=C(Nc1noc2cccc(OCC(F)(F)F)c12)c1ccc2ccccc2c1 [Example 81, naphthalene-2-[4-(2,2,2-trifluoroethoxy)benzo[d]isoxazol-3-yl]carboxamide]"
6,64,furan-2-(4-dimethylaminobenzo[d]isoxazol-3-yl)carboxamide [Example 75]

row,Compound,NA uptake inhibition [%] conc. 10 μM [%]
1,"CN(C)c1cccc2onc(NC(=O)C3CCCCC3)c12 [Example 73, cyclohexane-(4-dimethylaminobenzo[d]isoxazol-3-yl)carboxamide]",70

# Same assay, conditions: conc. 10 μM
row,inhibition at 10 µM [%],Compound
1,65,"O=C(Nc1noc2cc(Br)ccc12)c1ccc(F)c(F)c1 [Example 49, N-(6-bromobenzo[d]isoxazol-3-yl)-3,4-difluorobenzamide]"
2,72,"O=C(Nc1noc2c(F)cccc12)c1cccnc1Cl [Example 56, 2-chloro-N-(7-fluorobenzo[d]isoxazol-3-yl)nicotinamide]"
3,67,"O=C(Nc1noc2c(F)cccc12)c1ccc(F)c(F)c1 [Example 59, 3,4-difluoro-N-(7-fluorobenzo[d]isoxazol-3-yl)benzamide]"
4,66,"O=C(Nc1noc2c(F)cccc12)c1cccc(C(F)(F)F)c1F [Example 60, 2-fluoro-N-(7-fluorobenzo[d]isoxazol-3-yl)-3-trifluoromethylbenzamide]"
5,66,"COc1cccc(C(=O)Nc2noc3c(F)cccc23)c1 [Example 61, N-(7-fluorobenzo[d]isoxazol-3-yl)-3-methoxybenzamide]"
6,63,"O=C(Nc1noc2c(F)cccc12)C(c1ccccc1)c1ccccc1 [Example 62, N-(7-fluorobenzo[d]isoxazol-3-yl)-2,2-diphenylacetamide]"
7,63,"CN(C)c1cccc2onc(NC(=O)c3cc(F)c(Cl)cc3Cl)c12 [Example 64, 2,4-dichloro-N-(4-dimethylaminobenzo[d]isoxazol-3-yl)-5-fluorobenzamide]"
8,68,"CN(C)c1cccc2onc(NC(=O)c3ccc(F)c(F)c3F)c12 [Example 65, N-(4-dimethylaminobenzo[d]isoxazol-3-yl)-2,3,4-trifluorobenzamide]"
9,64,"CN(C)c1cccc2onc(NC(=O)c3cccnc3Cl)c12 [Example 66, 2-chloro-N-(4-dimethylaminobenzo[d]isoxazol-3-yl)nicotinamide]"
10,73,"CCCc1ccc(C(=O)Nc2noc3cccc(N(C)C)c23)cc1 [Example 68, N-(4-dimethylaminobenzo[d]isoxazol-3-yl)-4-propylbenzamide]"
11,67,"CN(C)c1cccc2onc(NC(=O)c3ccc(F)c(F)c3)c12 [Example 69, N-(4-dimethylaminobenzo[d]isoxazol-3-yl)-3,4-difluorobenzamide]"
12,66,"CN(C)c1cccc2onc(NC(=O)c3cccc(C(F)(F)F)c3F)c12 [Example 70, N-(4-dimethylaminobenzo[d]isoxazol-3-yl)-2-fluoro-3-trifluoromethylbenzamide]"
13,65,"COc1cccc(C(=O)Nc2noc3cccc(N(C)C)c23)c1 [Example 71, N-(4-dimethylaminobenzo[d]isoxazol-3-yl)-3-methoxybenzamide]"
14,66,"CN(C)c1cccc2onc(NC(=O)C(C)(C)C)c12 [Example 72, N-(4-dimethylaminobenzo[d]isoxazol-3-yl)-2,2-dimethylpropionamide]"
15,70,"CN(C)c1cccc2onc(NC(=O)C(c3ccccc3)c3ccccc3)c12 [Example 74, N-(4-dimethylaminobenzo[d]isoxazol-3-yl)-2,2-diphenylacetamide]"
16,70,"O=C(Nc1noc2cccc(OCC(F)(F)F)c12)c1ccc(F)cc1C(F)(F)F [Example 77, 4-fluoro-N-[4-(2,2,2-trifluoroethoxy)benzo[d]isoxazol-3-yl]-2-trifluoromethyl-benzamide]"
17,66,"O=C(Nc1noc2cccc(OCC(F)(F)F)c12)c1cc(F)c(Cl)cc1Cl [Example 78, 2,4-dichloro-5-fluoro-N-[4-(2,2,2-trifluoroethoxy)benzo[d]isoxazol-3-yl]benzamide]"
18,62,"O=C(Nc1noc2cccc(OCC(F)(F)F)c12)c1ccc(C(F)(F)F)c(F)c1 [Example 79, 3-fluoro-N-[4-(2,2,2-trifluoroethoxy)benzo[d]isoxazol-3-yl]-4-trifluoromethyl-benzamide]"
19,66,"O=C(Nc1noc2cccc(OCC(F)(F)F)c12)c1ccc(F)c(F)c1F [Example 80, 2,3,4-trifluoro-N-[4-(2,2,2-trifluoroethoxy)benzo[d]isoxazol-3-yl]benzamide]"
20,68,"O=C(Nc1noc2cccc(OCC(F)(F)F)c12)c1ccc(F)c(F)c1 [Example 82, 3,4-difluoro-N-[4-(2,2,2-trifluoroethoxy)benzo[d]isoxazol-3-yl]benzamide]"
21,65,"O=C(Nc1noc2cccc(OCC(F)(F)F)c12)c1cccc(C(F)(F)F)c1F [Example 83, 2-fluoro-N-[4-(2,2,2-trifluoroethoxy)benzo[d]isoxazol-3-yl]-3-trifluoromethyl-benzamide]"

row,Compound,inhibition at 10 µM [%]
1,"CN(C)c1cccc2onc(NC(=O)C(F)(F)C(F)(F)C(F)(F)F)c12 [Example 76, N-(4-dimethylaminobenzo[d]isoxazol-3-yl)-2,2,3,3,4,4,4-heptafluorobutyramide]",67

# Biological target: T3, mGluR5 receptor (Sus scrofa, UniProt I3LUI7)
# T3 construct: 450 μg of protein from brain homogenate are incubated with 5 nM^3[H]-MPEP; from tissue; host or cells: pig brain hemispheres without medulla, cerebellum and pons
# Assay: Affinity for the mGluR5 receptor: displacement of 3[H]-MPEP binding in pig brain homogenate
# Settings: 10 μM compound, 5 nM 3[H]-MPEP
# Procedure, shortened: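 Pig brain homogenate (450 μg protein) incubated with 5 nM 3[H]-MPEP and test compound at 10 μM for 60 min at room temperature. Displacement of radioligand binding measured after filtration.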
# T3 sequence (I3LUI7 19-1212): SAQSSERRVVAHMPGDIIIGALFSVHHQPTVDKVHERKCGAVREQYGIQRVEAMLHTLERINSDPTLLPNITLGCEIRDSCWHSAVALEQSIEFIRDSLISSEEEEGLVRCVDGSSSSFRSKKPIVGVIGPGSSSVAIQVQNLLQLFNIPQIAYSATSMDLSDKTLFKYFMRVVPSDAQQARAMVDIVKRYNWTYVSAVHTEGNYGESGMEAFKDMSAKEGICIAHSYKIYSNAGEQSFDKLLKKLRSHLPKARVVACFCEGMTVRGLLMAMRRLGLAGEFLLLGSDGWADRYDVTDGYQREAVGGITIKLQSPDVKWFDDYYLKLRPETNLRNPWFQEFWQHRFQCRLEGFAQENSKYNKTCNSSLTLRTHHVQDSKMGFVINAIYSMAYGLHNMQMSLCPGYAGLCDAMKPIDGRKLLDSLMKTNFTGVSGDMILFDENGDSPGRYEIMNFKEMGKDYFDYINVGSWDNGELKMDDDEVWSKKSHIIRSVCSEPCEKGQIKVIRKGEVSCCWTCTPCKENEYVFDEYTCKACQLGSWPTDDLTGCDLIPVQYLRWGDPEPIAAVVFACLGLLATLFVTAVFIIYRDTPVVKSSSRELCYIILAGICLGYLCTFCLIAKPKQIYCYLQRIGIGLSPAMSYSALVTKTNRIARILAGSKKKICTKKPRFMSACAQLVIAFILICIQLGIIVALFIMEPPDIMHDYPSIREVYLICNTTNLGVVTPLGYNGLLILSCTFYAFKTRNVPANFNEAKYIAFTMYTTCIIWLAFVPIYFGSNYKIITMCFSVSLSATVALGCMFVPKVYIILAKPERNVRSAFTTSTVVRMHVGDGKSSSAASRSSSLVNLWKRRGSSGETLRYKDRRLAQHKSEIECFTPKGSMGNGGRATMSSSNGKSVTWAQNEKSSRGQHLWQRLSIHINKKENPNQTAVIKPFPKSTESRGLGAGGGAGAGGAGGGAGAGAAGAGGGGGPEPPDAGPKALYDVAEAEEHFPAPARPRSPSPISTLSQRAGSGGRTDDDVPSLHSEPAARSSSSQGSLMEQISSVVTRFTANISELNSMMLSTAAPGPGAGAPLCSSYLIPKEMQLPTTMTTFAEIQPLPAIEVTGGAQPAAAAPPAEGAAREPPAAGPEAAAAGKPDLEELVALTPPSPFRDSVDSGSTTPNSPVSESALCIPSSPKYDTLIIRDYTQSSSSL
inhibition at 10 µM [%],Compound,mGluR5 receptor inhibition of the 3[H]-MPEP binding in % (10 μM) [%]
36.9,"O=C(Nc1noc2cc(Br)ccc12)c1ccc(F)c(F)c1 [Example 49, N-(6-bromobenzo[d]isoxazol-3-yl)-3,4-difluorobenzamide]",
,"CN(C)c1cccc2onc(NC(=O)C3CCCCC3)c12 [Example 73, cyclohexane-(4-dimethylaminobenzo[d]isoxazol-3-yl)carboxamide]",30.05
38,"O=C(Nc1noc2cccc(OCC(F)(F)F)c12)c1ccc(F)cc1C(F)(F)F [Example 77, 4-fluoro-N-[4-(2,2,2-trifluoroethoxy)benzo[d]isoxazol-3-yl]-2-trifluoromethyl-benzamide]",
42,"O=C(Nc1noc2cccc(OCC(F)(F)F)c12)c1ccc(F)c(F)c1 [Example 82, 3,4-difluoro-N-[4-(2,2,2-trifluoroethoxy)benzo[d]isoxazol-3-yl]benzamide]",
